Columns and labels:
K562 [1] = test: Resistance index, ratio of IC50 for drug-resistant human K562/ADR cells to IC50 for drug-sensitive human K562 cells; assay type: functional
[2] = Cytotoxicity against human drug-resistant K562/ADR cells expressing high levels of P-glycoprotein assessed as reduction in cell viability incubated for 48 hrs by SRB assay; assay type: functional, cell-based
K562 [3] = test: Cytotoxicity against human drug-sensitive K562 cells assessed as reduction in cell viability incubated for 48 hrs by SRB assay; assay type: functional, cell-based; settings: K562, 48 h
[4] = molecular target: ATP-dependent translocase ABCB1 (Homo sapiens, UniProt P08183); test: Inhibition of P-glycoprotein in human drug-resistant K562/ADR cells assessed as reduction in P-gp mediated rhodamine 123 efflux by spectrofluorometry; assay type: cell-based
Chain of ATP-dependent translocase ABCB1 (P08183 whole entry): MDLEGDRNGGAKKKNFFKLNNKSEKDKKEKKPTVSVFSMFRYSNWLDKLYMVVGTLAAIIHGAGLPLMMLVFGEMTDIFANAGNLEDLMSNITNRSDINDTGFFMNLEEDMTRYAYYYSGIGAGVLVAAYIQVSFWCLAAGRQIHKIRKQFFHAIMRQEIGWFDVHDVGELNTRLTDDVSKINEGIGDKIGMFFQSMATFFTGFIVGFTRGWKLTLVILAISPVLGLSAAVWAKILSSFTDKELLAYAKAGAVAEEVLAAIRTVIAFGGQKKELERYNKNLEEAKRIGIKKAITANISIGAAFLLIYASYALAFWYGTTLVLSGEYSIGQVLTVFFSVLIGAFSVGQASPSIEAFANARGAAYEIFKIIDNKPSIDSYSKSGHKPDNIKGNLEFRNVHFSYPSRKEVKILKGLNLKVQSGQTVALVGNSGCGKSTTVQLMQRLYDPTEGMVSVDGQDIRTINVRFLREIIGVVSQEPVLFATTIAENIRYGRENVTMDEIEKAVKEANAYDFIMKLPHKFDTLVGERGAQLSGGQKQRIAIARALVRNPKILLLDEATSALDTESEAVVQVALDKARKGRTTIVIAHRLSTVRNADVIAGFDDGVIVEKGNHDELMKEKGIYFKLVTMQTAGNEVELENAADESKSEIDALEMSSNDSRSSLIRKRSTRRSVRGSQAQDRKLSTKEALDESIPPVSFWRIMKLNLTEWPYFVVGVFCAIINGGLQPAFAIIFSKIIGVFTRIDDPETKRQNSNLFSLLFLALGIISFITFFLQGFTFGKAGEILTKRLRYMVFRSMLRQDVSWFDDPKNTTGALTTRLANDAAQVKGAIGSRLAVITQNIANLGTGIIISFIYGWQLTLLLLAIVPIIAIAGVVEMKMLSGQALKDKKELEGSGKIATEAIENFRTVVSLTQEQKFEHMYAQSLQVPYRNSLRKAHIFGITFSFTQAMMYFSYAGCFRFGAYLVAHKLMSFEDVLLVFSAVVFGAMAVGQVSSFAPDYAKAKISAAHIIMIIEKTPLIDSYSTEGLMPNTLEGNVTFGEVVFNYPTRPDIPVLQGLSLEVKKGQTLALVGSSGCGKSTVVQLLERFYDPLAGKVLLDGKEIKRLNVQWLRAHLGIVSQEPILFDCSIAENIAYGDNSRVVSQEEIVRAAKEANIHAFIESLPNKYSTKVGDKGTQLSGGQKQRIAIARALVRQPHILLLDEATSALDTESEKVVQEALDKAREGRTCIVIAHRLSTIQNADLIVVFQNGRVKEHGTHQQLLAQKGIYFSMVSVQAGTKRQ

Ki [4] [µM] | SMILES | Ratio IC50 (K562 [1]) | IC50 [2] [µM] | IC50 (K562 [3]) [µM]
1.71 | CCN(CC)CCCn1c(=O)/c(=C/c2ccccc2O)s/c1=C1/C(=O)Nc2ccc(C)cc21 | 2.07 | 30.6 | 14.8
> 2.23 | CN(C)CCn1c(=O)/c(=C/c2ccc(O)cc2)s/c1=C1/C(=O)Nc2ccccc21 | 1.44 | 6.16 | 4.28
0.48 | CCN(CC)CCCn1c(=O)/c(=C/c2ccc3c(c2)OCO3)s/c1=C1/C(=O)Nc2ccccc21 | 5.53 | 7.95 | 1.44
0.94 | CCN(CC)CCCn1c(=O)/c(=C/c2ccc3c(c2)OCO3)s/c1=C1/C(=O)Nc2ccc(C)cc21 | 2.46 | 5.03 | 2.04
> 2.23 | CCN(CC)CCCn1c(=O)/c(=C/c2ccc3c(c2)OCO3)s/c1=C1/C(=O)Nc2ccc(F)cc21 | 1.7 | 12.5 | 7.38
> 2.23 | CCN(CC)CCCn1c(=O)/c(=C/c2ccc3c(c2)OCO3)s/c1=C1/C(=O)Nc2cc(F)ccc21 | 1.32 | 2.98 | 2.26
1.78 | CCN(CC)CCCn1c(=O)/c(=C/c2ccc3c(c2)OCO3)s/c1=C1/C(=O)Nc2ccc(Cl)cc21 | 1.04 | 5.05 | 4.86
> 2.23 | CCN(CC)CCCn1c(=O)/c(=C/c2ccc(F)c(F)c2)s/c1=C1/C(=O)Nc2ccc(F)cc21 | 0.48 | 6.48 | 13.4
> 2.23 | Cc1ccc2c(c1)/C(=c1\s/c(=C\c3ccc(O)cc3)c(=O)n1CCN(C)C)C(=O)N2 | 1.01 | 6.8 | 6.74
1.01 | CCN(CC)CCCn1c(=O)/c(=C/c2ccc(F)cc2F)s/c1=C1/C(=O)Nc2cc(F)ccc21 | 1.12 | 4.12 | 3.69
0.73 | CCN(CC)CCCn1c(=O)/c(=C/c2cc(OC)c(OC)c(OC)c2)s/c1=C1/C(=O)Nc2ccccc21 | 2.58 | 6.65 | 2.58
0.32 | CCN(CC)CCCn1c(=O)/c(=C/c2cc(OC)c(OC)c(OC)c2)s/c1=C1/C(=O)Nc2ccc(C)cc21 | 0.48 | 2.02 | 4.17
0.12 | CCN(CC)CCCn1c(=O)/c(=C/c2cc(OC)c(OC)c(OC)c2)s/c1=C1/C(=O)Nc2ccc(F)cc21 | 1.2 | 2.86 | 2.39
0.47 | CCN(CC)CCCn1c(=O)/c(=C/c2cc(OC)c(OC)c(OC)c2)s/c1=C1/C(=O)Nc2cc(F)ccc21 | 1.39 | 1.64 | 1.18
0.22 | CCN(CC)CCCn1c(=O)/c(=C/c2cc(OC)c(OC)c(OC)c2)s/c1=C1/C(=O)Nc2ccc(Cl)cc21 | 2.02 | 1.65 | 0.82
1.34 | CN(C)CCn1c(=O)/c(=C/c2ccc(O)cc2)s/c1=C1/C(=O)Nc2ccc(F)cc21 | 4.73 | 6.14 | 1.3
> 2.23 | CN(C)CCn1c(=O)/c(=C/c2ccc(O)cc2)s/c1=C1/C(=O)Nc2cc(F)ccc21 | 1.28 | 7.16 | 5.59
> 2.23 | CN(C)CCn1c(=O)/c(=C/c2ccc3c(c2)OCO3)s/c1=C1/C(=O)Nc2ccccc21 | 0.59 | 0.78 | 1.32
> 2.23 | CCN(CC)CCCn1c(=O)/c(=C/c2ccc(O)cc2)s/c1=C1/C(=O)Nc2ccc(Cl)cc21 | 1.98 | 48.8 | 24.6
1.71 | CCN(CC)CCCn1c(=O)/c(=C/c2ccccc2O)s/c1=C1\C(=O)Nc2ccc(C)cc21 | 2.07 | 30.6 | 14.8

Ki [4] [µM] | SMILES | Ratio IC50 (K562 [1]) | IC50 [2] [µM] | IC50 (K562 [3]) [µM]
> 2.23 | CN(C)CCn1c(=O)/c(=C/c2ccc(O)cc2)s/c1=C1\C(=O)Nc2ccccc21 | 1.44 | 6.16 | 4.28
0.48 | CCN(CC)CCCn1c(=O)/c(=C/c2ccc3c(c2)OCO3)s/c1=C1\C(=O)Nc2ccccc21 | 5.53 | 7.95 | 1.44
0.94 | CCN(CC)CCCn1c(=O)/c(=C/c2ccc3c(c2)OCO3)s/c1=C1\C(=O)Nc2ccc(C)cc21 | 2.46 | 5.03 | 2.04
> 2.23 | CCN(CC)CCCn1c(=O)/c(=C/c2ccc3c(c2)OCO3)s/c1=C1\C(=O)Nc2ccc(F)cc21 | 1.7 | 12.5 | 7.38
> 2.23 | CCN(CC)CCCn1c(=O)/c(=C/c2ccc3c(c2)OCO3)s/c1=C1\C(=O)Nc2cc(F)ccc21 | 1.32 | 2.98 | 2.26
1.78 | CCN(CC)CCCn1c(=O)/c(=C/c2ccc3c(c2)OCO3)s/c1=C1\C(=O)Nc2ccc(Cl)cc21 | 1.04 | 5.05 | 4.86
> 2.23 | CCN(CC)CCCn1c(=O)/c(=C/c2ccc(F)c(F)c2)s/c1=C1\C(=O)Nc2ccc(F)cc21 | 0.48 | 6.48 | 13.4
> 2.23 | Cc1ccc2c(c1)/C(=c1/s/c(=C\c3ccc(O)cc3)c(=O)n1CCN(C)C)C(=O)N2 | 1.01 | 6.8 | 6.74
1.01 | CCN(CC)CCCn1c(=O)/c(=C/c2ccc(F)cc2F)s/c1=C1\C(=O)Nc2cc(F)ccc21 | 1.12 | 4.12 | 3.69
0.73 | CCN(CC)CCCn1c(=O)/c(=C/c2cc(OC)c(OC)c(OC)c2)s/c1=C1\C(=O)Nc2ccccc21 | 2.58 | 6.65 | 2.58
0.32 | CCN(CC)CCCn1c(=O)/c(=C/c2cc(OC)c(OC)c(OC)c2)s/c1=C1\C(=O)Nc2ccc(C)cc21 | 0.48 | 2.02 | 4.17
0.12 | CCN(CC)CCCn1c(=O)/c(=C/c2cc(OC)c(OC)c(OC)c2)s/c1=C1\C(=O)Nc2ccc(F)cc21 | 1.2 | 2.86 | 2.39
0.47 | CCN(CC)CCCn1c(=O)/c(=C/c2cc(OC)c(OC)c(OC)c2)s/c1=C1\C(=O)Nc2cc(F)ccc21 | 1.39 | 1.64 | 1.18
0.22 | CCN(CC)CCCn1c(=O)/c(=C/c2cc(OC)c(OC)c(OC)c2)s/c1=C1\C(=O)Nc2ccc(Cl)cc21 | 2.02 | 1.65 | 0.82
1.34 | CN(C)CCn1c(=O)/c(=C/c2ccc(O)cc2)s/c1=C1\C(=O)Nc2ccc(F)cc21 | 4.73 | 6.14 | 1.3
> 2.23 | CN(C)CCn1c(=O)/c(=C/c2ccc(O)cc2)s/c1=C1\C(=O)Nc2cc(F)ccc21 | 1.28 | 7.16 | 5.59
> 2.23 | CN(C)CCn1c(=O)/c(=C/c2ccc3c(c2)OCO3)s/c1=C1\C(=O)Nc2ccccc21 | 0.59 | 0.78 | 1.32
> 2.23 | CCN(CC)CCCn1c(=O)/c(=C/c2ccc(O)cc2)s/c1=C1\C(=O)Nc2ccc(Cl)cc21 | 1.98 | 48.8 | 24.6
– | COc1cccc2c1C(=O)c1c(O)c3c(c(O)c1C2=O)C[C@@](O)(C(=O)CO)C[C@@H]3O[C@H]1C[C@H](N)[C@H](O)[C@H](C)O1 [DOXORUBICIN] | 6.75 | – | –
